Laboratory results published in ChEMBL document CHEMBL5150017, “Mechanism of Action and Structure-Activity Relationship of α-Conotoxin Mr1.1 at the Human α9α10 Nicotinic Acetylcholine Receptor” (J Med Chem, 2022).
pIC50: −log10 of the molar value. Calls of active or inactive are those of the source. The rule behind the calls is not given here. Positions of bridges follow the written chain, without caps; N, C: chain ends. Residues, ends and D or L forms follow the SMILES beside them.

Columns and labels:
[1] = target: T1, Neuronal acetylcholine receptor; alpha9/alpha10 (Homo sapiens) (UniProt Q9UGM1+Q9GZZ6); assay: Antagonist activity at human alpha9alpha10 nAChR expressed in Xenopus laevis oocytes assessed as inhibition of ACh-induced current amplitude at -80 mV holding potential at 1 uM by two-electrode voltage clamp method; format: cell-based; conditions: Oocyte
[2] = target: T1, Neuronal acetylcholine receptor; alpha9/alpha10 (Homo sapiens); assay: Antagonist activity at human alpha9alpha10 nAChR expressed in Xenopus laevis oocytes assessed as inhibition of ACh-induced current amplitude at -80 mV holding potential at 100 nM by two-electrode voltage clamp method; format: cell-based; conditions: Oocyte
[3] = target: T1, Neuronal acetylcholine receptor; alpha9/alpha10 (Homo sapiens); assay: Antagonist activity at human alpha9alpha10 nAChR expressed in Xenopus laevis oocytes assessed as inhibition of ACh-induced current amplitude at -80 mV holding potential at 10 uM by two-electrode voltage clamp method; format: cell-based; conditions: Oocyte
[4] = Antagonist activity at rat alpha9alpha10 nAChR expressed in Xenopus laevis oocytes assessed as inhibition of ACh-induced current amplitude by two-electrode voltage clamp method; format: cell-based; conditions: Oocyte
[5] = target: T2, Neuronal acetylcholine receptor; alpha3/beta4 (Homo sapiens) (UniProt P30926+P32297); assay: Antagonist activity at human alpha3beta4 nAChR expressed in Xenopus laevis oocytes assessed as inhibition of ACh-induced current amplitude at -80 mV holding potential at 10 uM by two-electrode voltage clamp method; format: cell-based; conditions: Oocyte, filed as antagonist
[6] = target: T3, Neuronal acetylcholine receptor; alpha3/beta2 (Homo sapiens, UniProt P17787+P32297); assay: Antagonist activity at human alpha3beta2 nAChR expressed in Xenopus laevis oocytes assessed as inhibition of ACh-induced current amplitude at -80 mV holding potential in presence of BAPTA-AM at 10 uM by two-electrode voltage clamp method; format: cell-based; conditions: Oocyte, filed as antagonist
T3 sequence (P17787 whole entry): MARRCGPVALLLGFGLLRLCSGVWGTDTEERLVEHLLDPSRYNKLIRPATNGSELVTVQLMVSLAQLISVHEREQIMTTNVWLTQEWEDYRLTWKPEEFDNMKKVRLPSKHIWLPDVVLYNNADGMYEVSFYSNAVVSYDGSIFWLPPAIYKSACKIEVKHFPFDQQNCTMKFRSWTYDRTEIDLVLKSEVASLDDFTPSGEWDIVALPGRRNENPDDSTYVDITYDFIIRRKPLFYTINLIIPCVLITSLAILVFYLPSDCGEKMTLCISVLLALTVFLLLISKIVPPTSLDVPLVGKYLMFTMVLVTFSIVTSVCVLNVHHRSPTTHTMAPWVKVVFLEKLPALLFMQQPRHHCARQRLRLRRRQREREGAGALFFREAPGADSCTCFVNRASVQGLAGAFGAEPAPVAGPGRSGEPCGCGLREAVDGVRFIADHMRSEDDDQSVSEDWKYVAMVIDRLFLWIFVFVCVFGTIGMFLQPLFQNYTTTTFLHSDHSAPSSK
T3 sequence (P32297 whole entry): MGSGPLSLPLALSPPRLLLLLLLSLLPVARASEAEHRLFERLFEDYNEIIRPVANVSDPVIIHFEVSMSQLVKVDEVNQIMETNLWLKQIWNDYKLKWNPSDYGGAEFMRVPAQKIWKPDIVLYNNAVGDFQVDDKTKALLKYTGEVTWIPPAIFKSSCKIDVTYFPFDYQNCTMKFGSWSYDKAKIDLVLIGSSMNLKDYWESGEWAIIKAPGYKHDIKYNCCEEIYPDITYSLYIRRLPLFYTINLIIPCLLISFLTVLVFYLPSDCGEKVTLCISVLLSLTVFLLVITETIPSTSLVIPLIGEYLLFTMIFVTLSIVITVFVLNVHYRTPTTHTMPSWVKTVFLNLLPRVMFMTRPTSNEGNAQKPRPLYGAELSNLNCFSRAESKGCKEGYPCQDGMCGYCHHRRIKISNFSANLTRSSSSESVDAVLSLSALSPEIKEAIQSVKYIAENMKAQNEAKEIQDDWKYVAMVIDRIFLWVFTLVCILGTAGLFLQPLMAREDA

[7] = target: T2, Neuronal acetylcholine receptor; alpha3/beta4 (Homo sapiens); assay: Antagonist activity at human alpha3beta4 nAChR expressed in Xenopus laevis oocytes assessed as inhibition of ACh-induced current amplitude at -80 mV holding potential at 1 uM by two-electrode voltage clamp method; format: cell-based; conditions: Oocyte, filed as antagonist
[8] = target: T3, Neuronal acetylcholine receptor; alpha3/beta2; assay: Antagonist activity at human alpha3beta2 nAChR expressed in Xenopus laevis oocytes assessed as inhibition of ACh-induced current amplitude at -80 mV holding potential at 1 uM by two-electrode voltage clamp method; format: cell-based; conditions: Oocyte
[9] = target: T4, Neuronal acetylcholine receptor; alpha4/beta2 (Homo sapiens) (UniProt P17787+P43681); assay: Antagonist activity at human alpha4beta2 nAChR expressed in Xenopus laevis oocytes assessed as inhibition of ACh-induced current amplitude at -80 mV holding potential at 1 uM by two-electrode voltage clamp method; format: cell-based; conditions: Oocyte, filed as antagonist
[10] = target: Neuronal acetylcholine receptor; alpha9/alpha10 (Homo sapiens, UniProt Q9GZZ6+Q9UGM1); assay: Antagonist activity at human alpha9alpha10 nAChR expressed in Xenopus laevis oocytes assessed as inhibition of ACh-induced current amplitude at -80 mV holding potential by two-electrode voltage clamp method; format: cell-based, Oocyte
Chain of Neuronal acetylcholine receptor; alpha9/alpha10 (Q9UGM1 whole entry): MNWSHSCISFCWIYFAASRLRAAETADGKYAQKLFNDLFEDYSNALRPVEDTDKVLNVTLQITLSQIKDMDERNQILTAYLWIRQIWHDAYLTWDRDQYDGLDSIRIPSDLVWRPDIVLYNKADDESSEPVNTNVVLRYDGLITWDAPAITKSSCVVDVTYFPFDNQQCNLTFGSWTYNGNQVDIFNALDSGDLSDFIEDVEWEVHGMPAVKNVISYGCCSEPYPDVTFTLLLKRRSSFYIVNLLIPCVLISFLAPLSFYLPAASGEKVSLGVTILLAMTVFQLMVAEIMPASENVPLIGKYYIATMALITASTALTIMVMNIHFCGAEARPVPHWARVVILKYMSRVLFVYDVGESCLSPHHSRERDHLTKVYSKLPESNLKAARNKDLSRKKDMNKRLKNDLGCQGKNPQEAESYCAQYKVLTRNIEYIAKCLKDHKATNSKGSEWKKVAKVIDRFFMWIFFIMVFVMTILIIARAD
Chain of Neuronal acetylcholine receptor; alpha9/alpha10 (Q9GZZ6 whole entry): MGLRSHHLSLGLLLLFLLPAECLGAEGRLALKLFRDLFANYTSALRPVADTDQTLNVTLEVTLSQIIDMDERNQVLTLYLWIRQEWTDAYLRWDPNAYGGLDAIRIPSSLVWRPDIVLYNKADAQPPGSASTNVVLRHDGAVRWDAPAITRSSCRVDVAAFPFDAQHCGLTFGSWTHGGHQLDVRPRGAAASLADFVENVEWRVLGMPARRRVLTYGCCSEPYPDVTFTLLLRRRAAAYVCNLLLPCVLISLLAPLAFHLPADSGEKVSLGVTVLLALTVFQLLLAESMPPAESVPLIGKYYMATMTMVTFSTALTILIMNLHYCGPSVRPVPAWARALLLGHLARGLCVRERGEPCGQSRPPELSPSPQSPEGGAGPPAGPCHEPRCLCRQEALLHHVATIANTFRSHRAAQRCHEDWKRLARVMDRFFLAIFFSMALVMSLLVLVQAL

Oocyte = assay: Antagonist activity at rat alpha9alpha10 nAChR expressed in Xenopus laevis oocytes assessed as inhibition of ACh-induced current amplitude at 10 uM by two-electrode voltage clamp method; format: cell-based; conditions: filed as antagonist
[11] = target: T3, Neuronal acetylcholine receptor; alpha3/beta2; assay: Antagonist activity at human alpha3beta2 nAChR expressed in Xenopus laevis oocytes assessed as inhibition of ACh-induced current amplitude at -80 mV holding potential by two-electrode voltage clamp method; format: cell-based, Oocyte
[12] = target: T5, Neuronal acetylcholine receptor subunit alpha-7 (Homo sapiens, UniProt P36544); assay: Antagonist activity at human alpha7 nAChR expressed in Xenopus laevis oocytes assessed as inhibition of ACh-induced current amplitude at -80 mV holding potential at 1 uM by two-electrode voltage clamp method; format: cell-based; conditions: Oocyte
T5 sequence (P36544 whole entry): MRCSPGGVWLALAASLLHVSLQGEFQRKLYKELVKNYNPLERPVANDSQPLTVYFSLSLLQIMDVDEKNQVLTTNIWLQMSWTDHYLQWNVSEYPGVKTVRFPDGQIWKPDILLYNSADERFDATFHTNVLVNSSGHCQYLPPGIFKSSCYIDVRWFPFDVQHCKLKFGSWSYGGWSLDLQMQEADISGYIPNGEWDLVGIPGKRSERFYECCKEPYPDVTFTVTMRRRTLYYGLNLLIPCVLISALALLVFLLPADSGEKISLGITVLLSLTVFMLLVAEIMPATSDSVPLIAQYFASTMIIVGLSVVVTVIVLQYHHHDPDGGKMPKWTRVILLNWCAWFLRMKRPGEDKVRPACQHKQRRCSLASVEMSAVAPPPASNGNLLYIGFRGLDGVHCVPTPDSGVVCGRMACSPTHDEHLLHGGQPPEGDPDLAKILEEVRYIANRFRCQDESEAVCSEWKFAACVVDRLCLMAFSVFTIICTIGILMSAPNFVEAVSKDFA

[13] = target: Neuronal acetylcholine receptor subunit alpha-7 (Rattus norvegicus) (UniProt Q05941); assay: Inhibition of rat neuronal alpha7 nAChR expressed in Xenopus laevis oocytes assessed as inhibition of ACh-induced current amplitude at 1 uM by two-electrode voltage clamp method; format: cell-based; conditions: Oocyte, filed as antagonist
Chain of Neuronal acetylcholine receptor subunit alpha-7 (Rattus norvegicus) (Q05941 whole entry): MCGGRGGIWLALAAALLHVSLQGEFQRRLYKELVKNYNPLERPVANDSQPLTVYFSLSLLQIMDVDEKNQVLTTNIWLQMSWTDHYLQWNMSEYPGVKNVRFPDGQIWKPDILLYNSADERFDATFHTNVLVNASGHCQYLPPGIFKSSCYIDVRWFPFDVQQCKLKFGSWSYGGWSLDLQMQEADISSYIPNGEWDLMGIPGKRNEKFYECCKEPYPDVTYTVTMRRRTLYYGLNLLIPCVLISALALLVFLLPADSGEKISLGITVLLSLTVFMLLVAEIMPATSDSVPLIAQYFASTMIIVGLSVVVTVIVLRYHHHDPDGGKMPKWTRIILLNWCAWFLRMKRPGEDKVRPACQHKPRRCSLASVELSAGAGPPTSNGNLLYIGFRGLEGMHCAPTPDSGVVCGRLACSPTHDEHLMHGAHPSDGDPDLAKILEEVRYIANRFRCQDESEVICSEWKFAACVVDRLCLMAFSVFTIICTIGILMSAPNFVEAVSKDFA

[14] = target: T5, Neuronal acetylcholine receptor subunit alpha-7; assay: Antagonist activity at human alpha7 nAChR expressed in Xenopus laevis oocytes assessed as inhibition of ACh-induced current amplitude at -80 mV holding potential at 10 uM by two-electrode voltage clamp method; format: cell-based; conditions: Oocyte, filed as antagonist
[15] = target: T3, Neuronal acetylcholine receptor; alpha3/beta2; assay: Antagonist activity at human alpha3beta2 nAChR expressed in Xenopus laevis oocytes assessed as inhibition of ACh-induced current amplitude at -80 mV holding potential at 10 uM by two-electrode voltage clamp method; format: cell-based; conditions: Oocyte, filed as antagonist
[16] = target: T2, Neuronal acetylcholine receptor; alpha3/beta4 (Homo sapiens); assay: Antagonist activity at human alpha3beta4 nAChR expressed in Xenopus laevis oocytes assessed as inhibition of ACh-induced current amplitude at -80 mV holding potential in presence of BAPTA-AM at 10 uM by two-electrode voltage clamp method; format: cell-based; conditions: Oocyte, filed as antagonist
[17] = target: T4, Neuronal acetylcholine receptor; alpha4/beta2 (Homo sapiens); assay: Antagonist activity at human alpha4beta2 nAChR expressed in Xenopus laevis oocytes assessed as inhibition of ACh-induced current amplitude at -80 mV holding potential at 10 uM by two-electrode voltage clamp method; format: cell-based; conditions: Oocyte, filed as antagonist

CC[C@H](C)[C@@H]1NC(=O)[C@H](CC(=O)O)NC(=O)[C@@H]2CCCN2C(=O)[C@H](Cc2cnc[nH]2)NC(=O)[C@H](CC(N)=O)NC(=O)[C@H](C(C)C)NC(=O)[C@H](CO)NC(=O)[C@@H]2CSSC[C@H](NC(=O)CN)C(=O)N[C@@H](CSSC[C@@H](C(N)=O)NC1=O)C(=O)N[C@@H](CO)C(=O)N[C@@H](Cc1cnc[nH]1)C(=O)N1CCC[C@H]1C(=O)N[C@@H](C)C(=O)N2 (H-GCCSHPACSVNHPDIC-NH2; disulfide 2-8, 3-16)
inhibition [1]: 20%
inhibition ([1]; filed as antagonist): 40%

CC[C@H](C)[C@@H]1NC(=O)[C@H](CC(=O)O)NC(=O)[C@@H]2CCCN2C(=O)[C@H](CC(N)=O)NC(=O)[C@H](CC(N)=O)NC(=O)[C@H](Cc2ccc(O)cc2)NC(=O)[C@H](CO)NC(=O)[C@@H]2CSSC[C@H](NC(=O)CN)C(=O)N[C@@H](CSSC[C@@H](C(N)=O)NC1=O)C(=O)N[C@@H](CO)C(=O)N[C@@H](Cc1cnc[nH]1)C(=O)N1CCC[C@H]1C(=O)N[C@@H](C)C(=O)N2 (H-GCCSHPACSYNNPDIC-NH2; disulfide 2-8, 3-16)
inhibition [2]: 25%
inhibition [1]: 20%

CC[C@H](C)[C@@H]1NC(=O)[C@H](CC(=O)O)NC(=O)[C@@H]2CCCN2C(=O)[C@H](CC(N)=O)NC(=O)[C@H](CC(N)=O)NC(=O)[C@H](C(C)C)NC(=O)[C@H](CO)NC(=O)[C@@H]2CSSC[C@H](NC(=O)CN)C(=O)N[C@@H](CSSC[C@@H](C(N)=O)NC1=O)C(=O)N[C@@H](C)C(=O)N[C@@H](Cc1cnc[nH]1)C(=O)N1CCC[C@H]1C(=O)N[C@@H](C)C(=O)N2 (H-GCCAHPACSVNNPDIC-NH2; disulfide 2-8, 3-16)
inhibition ([3]; filed as antagonist): Active

CC[C@H](C)[C@@H]1NC(=O)[C@H](CC(=O)O)NC(=O)[C@@H]2CCCN2C(=O)[C@H](CC(N)=O)NC(=O)[C@H](CC(N)=O)NC(=O)[C@H](C(C)C)NC(=O)[C@H](CO)NC(=O)[C@@H]2CSSC[C@H](NC(=O)CN)C(=O)N[C@@H](CSSC[C@@H](C(N)=O)NC1=O)C(=O)N[C@@H](CO)C(=O)N[C@@H](Cc1cnc[nH]1)C(=O)N1CCC[C@H]1C(=O)N[C@@H](C)C(=O)N2 (H-GCCSHPACSVNNPDIC-NH2; disulfide 2-8, 3-16)
pIC50 [4]: 8.08
inhibition [5]: > 90%
inhibition [6]: 50%
inhibition [7]: 60%
inhibition [8]: 90%
inhibition [9]: Active
pIC50 [10]: 7.04
inhibition (Oocyte): 100%
pIC50 [11]: 6.66
inhibition [12]: 25%
inhibition [13]: 65%
inhibition [14]: 80%
inhibition [15]: > 90%
inhibition ([1]; filed as antagonist): 95%
inhibition ([3]; filed as antagonist): > 90%
inhibition [16]: 50%
inhibition [17]: 40%

CC[C@H](C)[C@@H]1NC(=O)[C@H](CC(=O)O)NC(=O)[C@@H]2CCCN2C(=O)[C@H](CC(N)=O)NC(=O)[C@H](CC(N)=O)NC(=O)[C@H](C(C)C)NC(=O)[C@H](CO)NC(=O)[C@@H]2CSSC[C@H](NC(=O)CN)C(=O)N[C@@H](CSSC[C@@H](C(N)=O)NC1=O)C(=O)N[C@@H](CO)C(=O)N[C@@H](C)C(=O)N1CCC[C@H]1C(=O)N[C@@H](C)C(=O)N2 (H-GCCSAPACSVNNPDIC-NH2; disulfide 2-8, 3-16)
inhibition [3]: 20%

CC[C@H](C)[C@@H]1NC(=O)[C@H](CC(=O)O)NC(=O)[C@@H]2CCCN2C(=O)[C@H](CC(N)=O)NC(=O)[C@H](CC(N)=O)NC(=O)[C@H](C(C)C)NC(=O)[C@H](C)NC(=O)[C@@H]2CSSC[C@H](NC(=O)CN)C(=O)N[C@@H](CSSC[C@@H](C(N)=O)NC1=O)C(=O)N[C@@H](CO)C(=O)N[C@@H](Cc1cnc[nH]1)C(=O)N1CCC[C@H]1C(=O)N[C@@H](C)C(=O)N2 (H-GCCSHPACAVNNPDIC-NH2; disulfide 2-8, 3-16)
inhibition ([3]; filed as antagonist): Active
